Reference: patent publication US20250154174A1, “BICYCLIC HETEROCYCLES AS MRGPRX2 ANTAGONISTS” (Incyte Corporation, priority 2023, published 2025)

Assays:
[1] = target: T1, MRGPRX2 (Homo sapiens, UniProt Q96LB1); experiment: MRGPRX2 FLIPR calcium mobilization assay; type: cell-based; parameters: host or cells: CHO-K1; details: CHO-K1 cells stably expressing human MRGPRX2; agonist Cortistatin-14 at EC80; Ca2+ release
T1 sequence (Q96LB1 1-330): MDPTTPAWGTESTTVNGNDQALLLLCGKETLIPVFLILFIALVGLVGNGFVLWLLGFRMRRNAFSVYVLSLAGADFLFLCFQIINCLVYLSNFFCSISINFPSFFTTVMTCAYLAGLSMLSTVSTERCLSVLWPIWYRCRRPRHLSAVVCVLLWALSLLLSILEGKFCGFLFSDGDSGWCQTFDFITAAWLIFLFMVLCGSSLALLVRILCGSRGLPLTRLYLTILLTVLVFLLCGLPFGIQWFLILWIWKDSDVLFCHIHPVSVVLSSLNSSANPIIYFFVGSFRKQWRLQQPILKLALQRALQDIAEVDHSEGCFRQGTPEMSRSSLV
Protocol: Chinese hamster ovary (CHO-K1) cells stably expressing human MRGPRX2 were purchased from Genescript (Piscataway, NJ). The cells were maintained in culture medium (Ham's F-12K) containing 10% (v/v) FBS, 200 μg/mL Zeocin, 100 units/mL penicillin G and 100 μg/mL streptomycin (Life Technologies, Carlsbad, CA). For the assay, the cells were harvested and resuspended with culture medium without Zeocin before plating at 8000 cells per well in 20 μL in 384-well black clear bottom cell culture plates (VWR, Radnor, PA). After 24 h culture at 37° C. and 5% CO2, the cells were loaded with 20 μL/well of calcium dye (FLIPR Calcium 6 Assay Kit, Molecular Devices, San Jose, CA) diluted in loading buffer (1× Hank's Balanced Salt Solution (HBSS), 5 mM probenecid, 20 mM 4-(2-hydroxyethyl)-1-piperazineethanesulfonic acid (HEPES), pH 7.4, VWR, Radnor, PA) followed with 45 min. incubation at 37° C. and 40 min. at r.t. in the dark. Cells were then treated with the addition of 10 uL/well test compounds with a range of increasing concentrations diluted in the assay buffer (1×HBSS, 20 mM HEPES, pH 7.4, VWR, Radnor, PA) with FLIPR Penta (Molecular Devices. San Jose, CA) and incubated for 30 min. at r.t. Ca^2+ release was measured with FLIPR Penta with 10 s basal fluorescence measurement, then 12.5 μL of 5× agonist Cortistatin-14 (Tocris, Minneapolis, MN) at final concentration corresponding to the EC80 were added followed with continued fluorescence signal monitoring for an additional 110 s. The base line adjusted (median of first 10s base line) max value of the Relative Fluorescence Unit (RFU) was plotted against compound concentrations. Wells with no compound were served as the positive controls, and wells with high concentration of reference antagonist were used as negative controls. IC50 curves were globally fitted with 3- or 4-parameter Hill equation in a Genedata Screener (Genedata Basel, Switzerland).

[2] = target: T1, MRGPRX2; experiment: MRGPRX2 IP1 HTRF assay; type: cell-based; parameters: host or cells: CHO-K1; details: CHO-K1 cells stably expressing human MRGPRX2; agonist Cortistatin 14 1 μM; IP1 accumulation
Protocol: This assay measures compound inhibition of myo-Inositol 1 phosphate (IP1) accumulation in CHO-K1 cells. Chinese hamster ovary (CHO-K1) cells stably expressing human MRGPRX2 were purchased from GenScript (Piscataway, NJ).
For the HTRF IP1 determination, an IP-One GqKit (Perkin Elmer Cisbio, Waltham, MA), which includes all reagents and buffers in this protocol, was used. The cells were maintained in culture medium (Ham's F-12K) containing 10% (v/v) FBS, and 200 μg/mL Zeocin. For the assay, the cells were harvested and resuspended in culture medium with 2% FBS and without Zeocin, then were passed through a 40 μm filter. Cells were added at 20000 cells in a 5 μL/well to a 384-well white small volume cell culture plate (Greiner VWR, Radnor, PA) which contained 50 nL/well of test compound serially diluted at a selected concentration range in DMSO. 5 μL/well of prepared 2× Stimulation Buffer2 was then added to plates and was incubated at 37° C. with 5% CO2 for 1 h. 5 μL/well of agonist Cortistatin 14 (Bio-TechneR&D Systems, Minneapolis, MN) in 1×Stimulation Buffer 2, for a 1 μM final concentration, was then added to plates and incubated at 37° C. with 5% CO2 for 1 h. 6 μL/well of 1:20 diluted Detection Reagent Mix (d2 and Cryptate) was added to the plates and incubated for 1 h in the dark. Plates were read on the PHERAstar microplate reader (BMG Labtech Cary, NC) to determine the HTRF ratio of the acceptor and donor emission signals. The IP1 concentrations were calculated from a standard curve following the IP-One GQ kit instructions. Wells with DMSO only and wells with high concentration of reference antagonist were used as controls for normalization. Compound IC50 curves were globally fitted with 3- or 4-parameter Hill equation in a Genedata Screener (Genedata Basel, Switzerland).

SMILES | IC50 [1] | IC50 [2]
Cn1cnc2ccnc(N[C@@H]3CCC[C@H](Nc4cccc5nc(C(F)(F)F)cn45)C3)c21 [Example 1, (1R,3S)—N^1-(3-Methyl-3H-imidazo[4,5-c]pyridin-4-yl)-N^3-(2-(trifluoromethyl)imidazo[1,2-a]pyridin-5-yl)cyclohexane-1,3-diamine] | 100 to 1000 nM | 100 to 1000 nM
Cn1cnc2ccnc(N[C@H]3CC[C@@H](Nc4cccc5nc(C(F)(F)F)cn45)CC3)c21 [Example 2, (1s,4s)-N^1-(3-Methyl-3H-imidazo[4,5-c]pyridin-4-yl)-N^4-(2-(trifluoromethyl)imidazo[1,2-a]pyridin-5-yl)cyclohexane-1,4-diamine] | 0.1 to 100 nM | 100 to 1000 nM
FC(F)(F)c1cc(N[C@H]2CCC[C@@H](Nc3nccn4nccc34)C2)n2nc(Br)cc2n1 [Example 8, (1S,3R)—N^1-(2-Bromo-5-(trifluoromethyl)pyrazolo[1,5-a]pyrimidin-7-yl)-N^3-(pyrazolo[1,5-a]pyrazin-4-yl)cyclohexane-1,3-diamine] | 0.1 to 100 nM | 100 to 1000 nM
FC(F)(F)c1cc(N[C@H]2CCC[C@@H](Nc3nnc4ccccn34)C2)n2nc(Br)cc2n1 [Example 10, (1R,3S)—N^1—([1,2,4]Triazolo[4,3-a]pyridin-3-yl)-N^3-(2-bromo-5-(trifluoromethyl)pyrazolo[1,5-a]pyrimidin-7-yl)cyclohexane-1,3-diamine] | 0.1 to 100 nM | 100 to 1000 nM
FC(F)(F)c1cc(N[C@H]2CCC[C@@H](Nc3nccc4ncccc34)C2)n2nc(C(F)(F)F)cc2n1 [Example 11, (1S,3R)—N^1-(2,5-Bis(trifluoromethyl)pyrazolo[1,5-a]pyrimidin-7-yl)-N^3-(1,6-naphthyridin-5-yl)cyclohexane-1,3-diamine] | 0.1 to 100 nM | 0.1 to 100 nM
FC(F)(F)c1cc(N[C@H]2CCC[C@@H](Nc3nccn4cncc34)C2)n2nc(Br)cc2n1 [Example 12, (1S,3R)—N^1-(2-Bromo-5-(trifluoromethyl)pyrazolo[1,5-a]pyrimidin-7-yl)-N^3-(imidazo[1,5-a]pyrazin-8-yl)cyclohexane-1,3-diamine] | 0.1 to 100 nM | 100 to 1000 nM
FC(F)(F)c1cc(N[C@H]2CCC[C@@H](Nc3nccn4cncc34)C2)n2nc(C(F)(F)F)cc2n1 [Example 14, (1S,3R)—N^1-(2,5-Bis(trifluoromethyl)pyrazolo[1,5-a]pyrimidin-7-yl)-N^3-(imidazo[1,5-a]pyrazin-8-yl)cyclohexane-1,3-diamine] | 0.1 to 100 nM | 100 to 1000 nM
FC(F)(F)c1cc(N[C@H]2CCC[C@@H](Nc3nccc4nccn34)C2)n2nc(Br)cc2n1 [Example 16, (1S,3R)—N^1-(2-Bromo-5-(trifluoromethyl)pyrazolo[1,5-a]pyrimidin-7-yl)-N^3-(imidazo[1,2-c]pyrimidin-5-yl)cyclohexane-1,3-diamine] | 0.1 to 100 nM | 100 to 1000 nM

Next, values leading:

IC50 [1] | IC50 [2] | SMILES
0.1 to 100 nM | 100 to 1000 nM | FC(F)(F)c1cn2c(N[C@H]3CCC[C@@H](Nc4nccn5cncc45)C3)cccc2n1 [Example 4, (1R,3S)—N^1-(Imidazo[1,5-a]pyrazin-8-yl)-N^3-(2-(trifluoromethyl)imidazo[1,2-a]pyridin-5-yl)cyclohexane-1,3-diamine]
100 to 1000 nM | – | Cc1cc2nc(C(F)(F)F)cc(N[C@H]3CCC[C@@H](Nc4nccc5ncn(C)c45)C3)n2n1 [Example 6, (1R,3S)—N^1-(3-Methyl-3H-imidazo[4,5-c]pyridin-4-yl)-N^3-(2-methyl-5-(trifluoromethyl)pyrazolo[1,5-a]pyrimidin-7-yl)cyclohexane-1,3-diamine]
0.1 to 100 nM | 100 to 1000 nM | Cc1cc2nc(C(F)(F)F)cc(N[C@H]3CCC[C@@H](Nc4nccc5ncccc45)C3)n2n1 [Example 7, (1S,3R)—N^1-(2-Methyl-5-(trifluoromethyl)pyrazolo[1,5-a]pyrimidin-7-yl)-N^3-(1,6-naphthyridin-5-yl)cyclohexane-1,3-diamine]
0.1 to 100 nM | 0.1 to 100 nM | FC(F)(F)c1cc(N[C@H]2CCC[C@@H](Nc3nccc4ncccc34)C2)n2nc(Br)cc2n1 [Example 9, (1S,3R)—N^1-(2-Bromo-5-(trifluoromethyl)pyrazolo[1,5-a]pyrimidin-7-yl)-N^3-(1,6-naphthyridin-5-yl)cyclohexane-1,3-diamine]
0.1 to 100 nM | 100 to 1000 nM | Cn1cnc2ccnc(N[C@@H]3CCC[C@H](Nc4cc(C(F)(F)F)nc5cc(Br)nn45)C3)c21 [Example 13, (1S,3R)—N^1-(2-Bromo-5-(trifluoromethyl)pyrazolo[1,5-a]pyrimidin-7-yl)-N^3-(3-methyl-3H-imidazo[4,5-c]pyridin-4-yl)cyclohexane-1,3-diamine]
0.1 to 100 nM | 100 to 1000 nM | Cn1cnc2ccnc(N[C@@H]3CCC[C@H](Nc4cc(C(F)(F)F)nc5cc(C(F)(F)F)nn45)C3)c21 [Example 15, (1S,3R)—N^1-(2,5-Bis(trifluoromethyl)pyrazolo[1,5-a]pyrimidin-7-yl)-N^3-(3-methyl-3H-imidazo[4,5-c]pyridin-4-yl)cyclohexane-1,3-diamine]
0.1 to 100 nM | 0.1 to 100 nM | FC(F)(F)c1cc(N[C@H]2CCC[C@@H](Nc3nccc4nccn34)C2)n2nc(C(F)(F)F)cc2n1 [Example 17, (1S,3R)—N^1-(2,5-Bis(trifluoromethyl)pyrazolo[1,5-a]pyrimidin-7-yl)-N^3-(imidazo[1,2-c]pyrimidin-5-yl)cyclohexane-1,3-diamine]
0.1 to 100 nM | 100 to 1000 nM | FC(F)(F)c1cc(N[C@H]2CCC[C@@H](Nc3nnc4ccccn34)C2)n2nc(C(F)(F)F)cc2n1 [Example 18, (1R,3S)—N^1—([1,2,4]Triazolo[4,3-a]pyridin-3-yl)-N^3-(2,5-bis(trifluoromethyl)pyrazolo[1,5-a]pyrimidin-7-yl)cyclohexane-1,3-diamine]
